From patent US20230312643A1, “PEPTIDE DERIVATIVE WITH COLLAGENASE INHIBITORY ACTIVITY, AND USE THEREOF” (SUNMARINE BIOTECH, priority 2020, published 2023)

How the values were obtained:
MMP1 protein (pdb1cgl) = target: T1, MMP1 protein (pdb1cgl) (Homo sapiens, UniProt P03956); assay: Molecular docking (SYBYL-X 2.1.1, Surflex-Dock 2.7) of binding affinity to collagenase; conditions: from Surflex-Dock total score
T1 sequence (P03956 101-269 limits assumed): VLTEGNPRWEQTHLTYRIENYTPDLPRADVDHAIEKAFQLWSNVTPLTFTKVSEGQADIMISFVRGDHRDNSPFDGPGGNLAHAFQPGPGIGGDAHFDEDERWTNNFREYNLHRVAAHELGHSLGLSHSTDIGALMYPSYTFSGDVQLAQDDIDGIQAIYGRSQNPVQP
Protocol: Molecular modeling was conducted through a computer simulation program.
Target structure: MMP1 protein (pdb1cgl)
Software: SYBYL-X 2.1.1, Surflex-Dock2.7
Through a computer simulation program, a study was conducted on how to promote collagenase enzyme inhibitory activity and percutaneous absorption during peptide modification.
Total score is a value indicating the degree of binding affinity of a docked structure including a crash and a polar interaction in the unit of pKd, and the larger the value, the higher the binding affinity. And, the similarity is a value comparing the similarity with the structure already bonded to the 1cgl, and means that the closer to 1, the more similar. The result of such docking means that the addition of an appropriate modification residue through a docking simulation of computer chemistry may increase the binding affinity and similarity.
However, when compared with the overall consensus score, a binding affinity similar to or higher than that of pdb1cgl_ligand may be expected, particularly in the modified GPN and PGN, too.

gelatinase = assay: Gelatinase inhibitory activity (EnzChek Gelatinase/Collagenase Assay Kit, DQ gelatin); format: biochemical
Protocol: Gelatinase is an enzyme which plays a major role in promoting skin aging by more finely degrading collagen fragments digested by MMP-1 with MMP-2, and wrinkle reduction activity was determined by measuring the inhibitory activity of the enzyme.
Gelatinase inhibitory activity was performed by purchasing EnzChek® Gelatinase/Collagenase Assay Kit (250-2000 Assays) reagent from Invitrogen. First, DQ gelatin stock solution (1 mg/ml) was prepared by adding 1.0 ml of DDW to 1 mg DQ gelatin vial. The 18 ml of DDW was added to 2 ml of 10× reaction buffer, so as to dilute reaction buffer. Then, a gelatinase enzyme reagent was prepared, and diluted with reaction buffer to a final concentration of 0.2 U/ml as working solution. Three samples of 50 ? each were prepared in a 96-well plate. The 30 ? of reaction buffer was added to 20 ? of DQ gelatin and sample blank, and 30 ? of working solution was added to a sample, which were then left in a light-blocked state at room temperature for about one to two hours, and then fluorescence intensity was measured at excitation wavelength 485 nm and 535 nm using ELISA plate reader (VICTOR X3™, PerkinElmer, US).

For NC(=O)C[C@H](NC(=O)CNC(=O)[C@@H]1CCCN1)C(=O)O [PGN, Pro-Gly-Asn, reference compound], the “binding affinity compared to 1cgl ligand” value (MMP1 protein (pdb1cgl)) was ~61.5%, the Gelatinase inhibitory activity (gelatinase; 0.2 mg/ml) was 1.5 ± 5.5% and the Gelatinase inhibitory activity (gelatinase; 0.3 mg/ml) was 9.8 ± 0.8%. The Gelatinase inhibitory activity (gelatinase; 0.4 mg/ml) was 63.1 ± 2.1% and the Gelatinase inhibitory activity (gelatinase; 0.5 mg/ml) was 80.5 ± 1.2%.
